Measurements published in article PMC6934184, “Selective DNA-PKcs inhibition extends the therapeutic index of localized radiotherapy and chemotherapy” (The Journal of Clinical Investigation, 2019).

Biological target: T1, EPHA7 (Homo sapiens, UniProt Q15375)
T1 construct: purchased Thermo Fisher Scientific (Life Technologies) SelectScreen
Test: SelectScreen LanthaScreen
Type: binding
Details: read-out: % displacement
Outline: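 NU5455 was profiled across the SelectScreen Broad panel of kinase activity and binding assays. Z'LYTE reactions such as CSF1R ran at apparent Km ATP, while the Adapta CAMK1 assay used ATP listed as 10. Values are given as percent.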

T1 sequence (Q15375 28-998): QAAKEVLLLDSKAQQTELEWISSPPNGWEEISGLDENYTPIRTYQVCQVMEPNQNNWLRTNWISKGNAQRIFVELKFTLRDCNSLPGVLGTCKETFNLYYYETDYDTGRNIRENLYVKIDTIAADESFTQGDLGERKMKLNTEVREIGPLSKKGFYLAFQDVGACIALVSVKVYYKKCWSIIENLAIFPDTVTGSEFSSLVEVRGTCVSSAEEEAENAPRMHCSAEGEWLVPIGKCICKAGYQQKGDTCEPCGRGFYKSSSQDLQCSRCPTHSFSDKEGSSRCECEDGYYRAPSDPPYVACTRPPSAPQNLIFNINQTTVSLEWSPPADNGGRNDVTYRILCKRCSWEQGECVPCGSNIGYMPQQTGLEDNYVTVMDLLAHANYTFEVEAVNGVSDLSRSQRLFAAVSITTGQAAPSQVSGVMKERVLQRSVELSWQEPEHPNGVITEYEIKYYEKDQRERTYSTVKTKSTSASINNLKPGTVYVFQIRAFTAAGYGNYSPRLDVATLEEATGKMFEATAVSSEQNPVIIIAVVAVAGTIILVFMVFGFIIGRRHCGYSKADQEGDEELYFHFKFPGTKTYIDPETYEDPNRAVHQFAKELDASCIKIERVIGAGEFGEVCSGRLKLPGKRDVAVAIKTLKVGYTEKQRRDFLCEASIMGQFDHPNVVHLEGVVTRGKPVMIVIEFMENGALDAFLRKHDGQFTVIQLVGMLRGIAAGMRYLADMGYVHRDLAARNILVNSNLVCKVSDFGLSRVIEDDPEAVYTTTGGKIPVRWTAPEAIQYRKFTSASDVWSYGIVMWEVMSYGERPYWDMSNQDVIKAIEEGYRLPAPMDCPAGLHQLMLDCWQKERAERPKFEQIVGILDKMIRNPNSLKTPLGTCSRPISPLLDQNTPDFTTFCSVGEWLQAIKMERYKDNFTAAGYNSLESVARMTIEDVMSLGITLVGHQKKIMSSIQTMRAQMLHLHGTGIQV

Question: With `CN(C(=O)CN1CCOCC1)c1ccc2sc3c(-c4cccc5c(=O)cc(N6CC7CCC(C6)O7)oc45)cccc3c2c1` [NU5455] as the molecule, how does the inhibition at 1 µM read?
Answer: Its inhibition at 1 µM is 1.2%.
